# Assay results taken from patent US20250339531A1, “DUX4 POLYPEPTIDES AND NUCLEIC ACIDS FOR TREATING INFLAMMATORY AND AUTOIMMUNE CONDITIONS” (Fred Hutchinson Cancer Center, priority 2021, published 2025).
# Entries after “also recorded” stand apart in the source; their conditions may differ.
# Legend:
# Assay type in all cases: cell-based, human
# [1] = test system: interferon-stimulated genes IFIH1, ISG20, CXCL9, and CD74; test: IFNG induction of interferon-stimulated genes, RT-qPCR in MB135 cells with doxycycline-inducible transgenes; details: for suppression of IFNG induction of ISGs (IFIH1, ISG20, CXCL9, CD74): MB135 cells, doxycycline-induced transgene, continuous protocol, IFNG 16 h
# Experimental: (§1) All myoblast experiments were conducted in immortalized MB135 or MB200 myoblast cell lines (isolated from a control or FSHD2 subject, respectively cultured in Ham's F-10 Nutrient Mix (Gibco) supplemented with 15% fetal bovine serum (Hyclone), 100 U/100 μg/ml penicillin/streptomycin (Gibco), 1 μM dexamethasone (Sigma), and 10 ng/ml recombinant human basic fibroblast growth factor (PeproTech). To differentiate the myoblasts to myotubes, media was changed to DMEM supplemented with 10 μg/ml insulin (Sigma) and 10 μg/ml transferrin (Sigma). Cell lines containing doxycycline-inducible transgenes were additionally cultured with 2 μg/mL puromycin (Sigma). Transgenes were induced with 1 μg/mL of doxycycline (Sigma) for 4 hours prior to other treatments for a total of 20 hrs. The Kitra-SRS cells (RRID:CVCL_YI69) were provided by Dr. H. Otani and Osaka University (Nakai et al., 2019) and were cultured in DMEM supplemented with 10% fetal bovine serum (Hyclone) and 100 U/100 μg/ml penicillin/streptomycin (Gibco). Biological replicates consisted of independent but parallel experiments, such as simultaneously stimulating three cell culture plates with IFNγ. Technical replicates consisted of repeat measurements of the same biological sample, such as loading the same biological sample in triplicate for analysis by RT-qPCR.
# (§2) Myoblasts were transfected with either (final concentrations) 10 μM 2′,3′-cGAMP (Sigma Aldrich), 2 μg/mL poly(I:C) (Invitrogen), or 1 μg/mL 3′ppp-dsRNA RIG-I ligand (Dan Stetson Lab, UW) using Lipofectamine 2000 according to manufacturer's protocol, or were stimulated with 1000U IFNβ (PeproTech) or 200 ng/ml IFNγ (R+D Systems) by addition directly to cell culture medium. After 16 hours of immune stimulation, RNA was collected from cells using the NucleoSpin RNA Kit (Macherey-Nagel) according to manufacturer's instructions. RNA samples were quantified by nanodrop and 1 μg of RNA per sample was treated with DNase I Amplification Grade (Thermo Fisher), and then synthesized into cDNA using the Superscript IV First-Strand Synthesis System, including oligo dT primers (Invitrogen). qPCR was run in 384-well plates on an Applied Biosystems QuantStudio 6 Flex Real-Time PCR System (ABI) and analyzed in Microsoft Excel.
# ISG induction by IFNG = test: RNA-seq of IFNG-induced genes in MB135 cells; details: doxycycline + IFNG; for IFNG-induced genes whose induction was suppressed more than 2-fold (percent) / IFNG-induced genes whose induction was suppressed more than 4-fold (percent): genes induced by IFNG (log 2 fold-change >3)
# Experimental: RNA was extracted as described above from untreated, doxycycline-treated, IFNγ-treated, or doxycycline- and IFNγ-treated samples. RNA was submitted to the Fred Hutchinson Cancer Research Center Genomics Core for library preparation using the TruSeq3 Stranded mRNA kit (Illumina) followed by size and quality analysis by Tapestation (Agilent). Libraries were sequenced on a NextSeq P2-100 (Illumina).
# Sequencing analysis was performed using R version 4.0.3 (R Core Team, 2020). Sequencing reads were trimmed using Trimmomatic (version 0.39) (Bolger et al., 2014, Trimmomatic: a flexible trimmer for Illumina sequence data. Bioinformatics 30, 2114-2120), and aligned to the Homo sapiens GRCh38 reference genome with the Rsubread aligner (Liao et al., 2019, The R package Rsubread is easier, faster, cheaper and better for alignment and quantification of RNA sequencing reads. Nucleic Acids Res 47, e47). Gene counts were analyzed using featureCounts (v2.0.1) (Liao et al., 2019, supra) and the Gencode v35 annotation file. Normalization and differential expression analysis were done with DESeq2 (v1.26.0) (Love et al., 2014, Moderated estimation of fold change and dispersion for RNA-seq data with DESeq2. Genome Biol 15, 550).
# ZSCAN4 = test: Activation of DUX4 target gene ZSCAN4, RT-qPCR; details: MB135 cells ± doxycycline
# Experimental: as §1, §2
# [2] = test system: eIF2-alpha, RPS6, 4EBP1, eIF4E, eEF2; test: Immunoblot of translational regulators; details: MB135 myoblasts, 4-hour pulse of doxycycline
# Experimental: Protein samples were harvested in RIPA buffer [150 mM NaCl, 1% NP-40, 0.5% Na-deocycholate, 1% SDS, 25 mM Tris-HCl pH7.4] supplemented with protease and phosphatase inhibitor tablets (Pierce), followed by sonication in Diagenode Bioruptor. Lysate was cleared by centrifugation at 16000×g and quantified using a Pierce BCA assay (Thermo Fisher Scientific). Samples were run on NuPAGE precast polyacrylamide gels (Invitrogen) and transferred to PVDF membrane. Membranes were blocked in PBS containing 0.1% Tween-20 and 5% non-fat dry milk before overnight incubation at 4° C. with primary antibodies (see resource table for a list of antibodies used in this study). Membranes were incubated with horseradish peroxidase-conjugated secondary antibodies for 1 hour at room temperature and SuperSignal chemiluminescent substrate (Thermo Scientific) was used for detection on film with a Mini-medical 90 processor. Membranes were stripped with Restore Western Blot Stripping Buffer (Pierce).
# MEL375 cells = test: IFNG-induced MHC class I in MEL375 melanoma cells (immunoblot, FACS)
# Experimental: Expression of DUX4-CTD fragment suppresses interferon-induced MHC Class I expression and requires intact (L)LxxL(L) motifs. Human melanoma MEL375 cells were transduced with doxycycline inducible vectors expressing the 3×Flag-nls-tagged DUX4 CTD-154-424 (iDUX4-CTD) (SEQ ID NOS: 8-9) or the similar constructs with a mutation in the first (L)LxxL(L) motif and a deletion of the second (L)LxxL(L) motif (iDUX4-mL1dL2) (SEQ ID NOS: 10-11). Cells were treated with doxycycline (1 μg/ml) for four hours followed by the addition of interferon-gamma treatment for 16 hrs (50 ng/ml).
# [3] = 113 genes induced by IFNG (log 2 fold-change >3)
Substance,"suppression of IFNG induction of ISGs (IFIH1, ISG20, CXCL9, CD74) [1]","suppression of IFNG induction of ISGs (IFIH1, ISG20, CXCL9, CD74) ([1]; listed as iDUX4-CA)",IFNG-induced genes whose induction was suppressed more than 2-fold (number) (ISG induction by IFNG; [3]),IFNG-induced genes whose induction was suppressed more than 4-fold (number) (ISG induction by IFNG; [3]),IFNG-induced genes whose induction was suppressed more than 2-fold (percent) (ISG induction by IFNG),IFNG-induced genes whose induction was suppressed more than 4-fold (percent) (ISG induction by IFNG),transcriptional activation of DUX4 target gene ZSCAN4 (ZSCAN4),transcriptional activation of DUX4 target gene ZSCAN4 (ZSCAN4; listed as iDUX4-CA),transcriptional activation of DUX4 target gene ZSCAN4 (ZSCAN4; listed as wild-type DUX4),status of translational regulators after a pulse of transgene [2],"suppression of MHC class I proteins in MEL375 cells, pulse protocol (MEL375 cells; Mel375iDUX4)","suppression of RNA induction of GBP1, IDO1, CXCL10 by IFNG ([1]; MB135-iDUX4-CTD cells used for STAT1 ChIP)","suppression of IFNG induction of ISGs (IFIH1, ISG20, CXCL9, CD74) ([1]; listed as iDUX4-CTD)","MHC surface protein expression by FACS (MEL375 cells; MEL375 cells, doxycycline then IFNG)",suppression of IFNG-induced MHC class I proteins in MEL375 cells (MEL375 cells; doxycycline 1 μg/ml 4 h then IFNG 50 ng/ml 16 hrs)
DUX4: human DUX4 protein SEQ ID NO:3 expressed from doxycycline inducible codon altered transgene SEQ ID NO:2,blocks induction of ISGs IFIH1 and ISG20 by IFNG and IFNB1; also recorded: robustly blocked,suppresses IFNG induction of all for ISGs,102 genes,76 genes,90%,67%,strongly induced,robust activator of its target gene ZSCAN4,Only the wild-type DUX4 shows transcriptional activation of its target gene,sufficient to induce phosphorylation of eIF2-alpha; also recorded: brief reduction in phosphorylation of ribosomal protein S6 (RPS6); also recorded: prolonged dephosphorylation of 4EBP1 and a correlated loss of phosphorylated eukaryotic initiation factor 4E (eIF4E); also recorded: increased phosphorylation of eukaryotic elongation factor 2 (eEF2) on threonine 56; also recorded: enhanced phosphorylation of eEF2 at Thr56 and reduced phosphorylation of eIF4E at Ser209,prolonged suppression of MHC class I proteins in the MEL375 melanoma cell line,,,,
"longCTD: 3×FLAG tag and nls in frame with carboxyterminal 271 amino acids of DUX4 (aa154-424), SEQ ID NOS: 8-9",sufficient to block most or all ISG induction by IFNG; also recorded: suppresses three of the four IFNG-induced genes,,,,90%,52%,transcriptionally silent,,,,,robustly suppressed the RNA induction by IFNG,equally suppressed activation of ISGs,decreased MHC surface protein expression,suppresses IFNG induction of MHC proteins
